“Also recorded” adds a separate entry of the source. Where two headings read alike, the source gives them in different places.
What was measured:
[1] = tested on: Con A-stimulated mouse splenocytes; experiment: transwell chemotaxis assay in response to CXCL12, Con A-stimulated splenocytes; type: cell-based; conditions: for effect on CXCL12-induced migration: forskolin 25 μM, motapizone 10 μM, piclamilast 1 μM
Method: (§1) Isolation of murine splenocytes. Splenocytes were isolated from 6-8 week old C57BL/6 mice obtained from Jackson Laboratories (Bar Harbor, Me.). Spleens were removed and a single-cell suspension prepared using 40 μm cell strainers (Fisher Scientific). Cells were washed with RPMI 1640 medium supplemented with 5% fetal bovine serum, 2 mM L-glutamine, 100 U/ml penicillin and […] (all from GIBCO). Red blood cells were lysed using standard lysis buffer (0.15M NH4Cl, 10mM KHCO3, 0.1 mM EDTA PH 7.4). Cells were then washed and used in chemotaxis assays either as unstimulated cells or after stimulation with Con A ([…]) as indicated.
(§2) Preparation of Test Reagents. […] This concentration of DMSO had no effect on migration of splenocytes in the presence or absence of CXCL12. CXCL12 was prepared as a 100 μg/ml stock solution in PBS+0.1% BSA, Con A was prepared as a stock of 2.5 mg/ml in PBS, and dibutyryl cAMP and Rp-cAMPS were prepared as 50 mM stock solutions in water, and these reagents were diluted directly into the chemotaxis assays.
(§3) Chemotaxis Assay. Chemotaxis assays were done in 24-well transwell plates with a pore size of 5 μm (Costar, Corning). Splenocytes were placed in medium at a concentration of 3×10^6 cells/ml. Where test agents were used, splenocytes were pretreated with the agent or vehicle for 45 to 60 min, following which 100 μl of the splenocyte suspension was placed into the upper chamber of transwell plates, and the lower chamber was filled with 600 μl of medium. When added to induce migration, CXCL12 (250 ng/ml) was added to the lower chamber only. Other test reagents were added as indicated to both the upper and lower chambers. After 4 hours of incubation at 37° C. in 5% CO2, transwell inserts were gently removed and the number of cells that migrated into the lower chamber were counted by withdrawing 500 μl of lower chamber medium, mixing it with 10 ml of buffer and counting the cells on a Coulter Counter (Beckman Coulter Z series). Where results are expressed as % of CXCL12-stimulated migration, this was calculated as follows: (cells migrated in presence of CXCL12 and test reagent—cells migrated in medium alone)/(cells migrated in presence of CXCL12-cells migrated in medium alone)×100. Experimental points for all chemotaxis assays were performed in triplicate.
(§4) Splenocytes isolated from mice were assayed for migration in response to CXCL12 (250 ng/ml), either directly (unstimulated) or following 48 hr of incubation with 3 μg/ml Con A (stimulated), as described in Methods. To test for effects of dibutyryl cAMP, cells were pretreated with dibutyryl cAMP (500 μM) for 45-60 min prior to beginning the chemotaxis assay, and the assays were conducted with dibutyryl cAMP (db-cAMP) present (500 μM) in both the upper and lower chambers of the transwell plates. Data plotted are derived from a single experiment performed in triplicate. *p<0.001; **p<0.02.

[2] = tested on: Con A activated splenocytes on bEND.3 brain derived endothelial cell monolayers; experiment: adhesion of Con A activated splenocytes to bEND.3 monolayer (Example 4); type: cell-based, mouse; conditions: piclamilast 1 μM; static assay
Method: The hypothesis was first tested using a series of experiments determining T cell adhesion to vascular endothelial cells. Confluent bEND.3 brain derived endothelial cell monolayers were pretreated with 100 ng/ml TNF-α. […] Splenocytes were allowed to adhere for 30 min at 37° C. without shaking after which nonadherent cells were removed by washing the wells 4× with prewarmed D-PBS. For analysis, 7×10^5 calcein AM labeled cells were added to an empty well as a representation of maximal possible fluorescence. The fluorescence of each well was read by a Victor 3v microplate reader with a fluorescein filter set. Background fluorescence (medium only) was subtracted from each well and percentage of adherent cells that is resistant to detachment under the conditions of washing the wells was calculated as fluorescence of well in percent of maximal fluorescence (without washing).

[3] = tested on: Con A-activated splenocytes on TNF-α activated bEnd.3 endothelial cells; experiment: T cell-endothelial cell adhesion assay (Example 13); type: cell-based, mouse; conditions: for ability to reduce adhesion of activated T cells to endothelial cells: IBMX 300 μM, piclamilast 1 μM, motapizone 1 μM; for reversal of the inhibitory effect of DP on T cell adhesion: DP 100 μM with adenosine deaminase 1 U/ml or CXCL12 250 ng/ml
Method: (§5) Cell treatment. Confluent bEnd.3 monolayers were incubated with 200 ng/ml TNF-α (Peprotech, Rocky Hill, N.J.) at 37° c. for 2 hours. […] Christoff Zitt and Armin Hatzelmann (Altana Pharma, Konstanz, Germany). Con A-activated splenocytes or CD4^+CD25^− T cells activated with plate-bound anti-CD3 mAb were treated with the same reagents for 20, 45, or 90 minutes.
Adhesion assays. Adhesion assays were performed in 24-well plates with a confluent layer of bEnd.3 cells. Splenocytes or CD4^+CD25^− T cells were labeled with 5 μM Calcein AM (Molecular Probes, Eugene, Oreg.) and treated as described above. 7×10^5 pretreated splenocytes or CD4^+CD25^− T cells per well were incubated on bEnd.3 cells in RPMI media. After 30 minutes at 37° C., non-adherent cells were removed by washing with D-PBS. For analysis, 7×10^5 Calcein AM labeled splenocytes or CD4^+CD25^− T cells were used as positive controls. Fluorescence was read in a Victor 3v microplate reader (Perkin Elmer, Waltham, Mass.) with a fluorescein filter set. The percentage of adherent T cells, i.e. labeled cells resistant to detachment, was calculated as total fluorescence of well divided by fluorescence of 7×10^5 Calcein AM labeled cells multiplied by 100.
In FIGS. 20A-20B, splenocytes from C57BL/6 mice were activated with Con A (3 μg/ml) for 48 hours followed by a 45 minute incubation with (A) IBMX (300 μM), piclamilast (Picl, 1 μM) or DP (100 μM), (B) dibutryl cAMP (Db-cAMP, 500 μM) or DP in the presence or absence of adenosine deaminase (AD, 1 U/ml) or vehicle (0.1% DMSO). bEnd.3 endothelial cells were activated for 2 hours with TNF-α (200 ng/ml) and incubated with the same reagents for the final 45 minutes before splenocytes were added to the bEnd.3 cells for the adhesion assay. The data are presented as the mean±SEM percentage of splenocytes which were resistant to detachment. Results are representative of at least three independent experiments run in triplicate (*p<0.05, **p<0.001; one way ANOVA followed by Bonferroni t-test).

PDE4 [4] = experiment: PDE4 inhibition; type: biochemical
PDE4 [5] = conditions: cited from earlier work
[6] = tested on: unstimulated mouse splenocytes; experiment: transwell chemotaxis assay in response to CXCL12, unstimulated splenocytes; type: cell-based
Method: as §1, §2, §3, §4

bEnd.3 endothelial cells = experiment: qRT-PCR gene expression in TNF-α activated bEnd.3 endothelial cells; type: cell-based, mouse; conditions: 45 minutes, DP 100 μM, dibutryl cAMP 500 μM
Method: Quantitative real-time RT-PCR analysis. 10 ng cDNA, or 2 μl cDNA for LCM studies, was amplified by qRT-PCR in a 25 μl reaction using SYBR Green PCR Master Mix (Applied Biosystems, Foster City, Calif.). Primers were designed using Primer Express software v3.0 and primer efficiency verified by slope analysis to be 100%±2.5%. qRT-PCR was performed using an ABI 7500 fast system and data analyzed using the Δ^ct method (SDS software v3.0). Amplicon sizes were approximately 100 bp.
as §5
In FIG. 23A, bEnd.3 endothelial cells were activated for 2 hours with TNF-α (200 ng/ml) and (A) DP (100 μM) or vehicle (0.1% DMSO) for the final 45 minutes. PDE gene expression was then analyzed by qRT-PCR and the data presented as the mean+SEM of 3 independent experiments assayed in triplicate (*p<0.05, **p<0.001; unpaired t-test).
The data are shown as a mean±SEM percentage of vehicle control and represent 3 independent experiments assayed in triplicate (*p<0.05, * *p<0.001; unpaired t-test).

PDE3 = conditions: read-out: Potency (IC50) PDE3; cited from earlier work
PDE1 = conditions: read-out: Potency (IC50) PDE1; cited from earlier work
[7] = tested on: peripheral blood mononuclear cells; conditions: cited from earlier work
T cells = conditions: cited from earlier work
[8] = Mus musculus, Splenocyte, 4 h, read-out: inhibition of CXCL12-induced migration

Compound: COc1ccc(C(=O)Nc2c(Cl)cncc2Cl)cc1OC1CCCC1 [piclamilast]
- effect on CXCL12-induced migration ([1]; Con A-stimulated splenocytes): no statistically significant effect; also recorded: not inhibited at all
- effect on adhesion of Con A-stimulated splenocytes to endothelial cells [2]: not inhibited at all
- ability to reduce adhesion of activated T cells to endothelial cells ([3]; 45 minute incubation): no short term suppressive effect
- Ki (PDE4 [4]; purified PDE4): ~0.3 nM
- concentration margin before any other PDE gene family is inhibited (PDE4 [4]; relative to PDE4 inhibition): more than 5 orders of magnitude
- IC50 (PDE4 [5]; read-out: IC50, PDE4): 1 nM

Compound: CCCC(=O)Nc1ncnc2c1ncn2[C@@H]1O[C@@H]2COP(=O)(O)O[C@H]2[C@H]1OC(=O)CCC [dibutyryl cAMP]
- inhibition at 500 µM [6, 8]: 54%
- inhibition at 500 µM [1, 8]: 29%
- reduction of adhesion of activated T cells to bEnd.3 endothelial cells ([3]; 45 minute incubation, DP 100 μM, dibutryl cAMP 500 μM, adenosine deaminase 1 U/ml): 81%
- reduction of ICAM-1 mRNA expression (bEnd.3 endothelial cells): 42%
- increase of claudin-5 gene expression (bEnd.3 endothelial cells; 8-bromo-cAMP 500 μM): 70%
- reduction of CXCL12 gene expression (bEnd.3 endothelial cells; 8-bromo-cAMP 500 μM): 48%
- reduction of VCAM-1 gene expression (bEnd.3 endothelial cells; 8-bromo-cAMP 500 μM): 33%

Compound: adenosine deaminase
- effect by itself on splenocyte migration ([1]; adenosine deaminase 1 U/ml, stimulated splenocytes): no effect
- reversal of the inhibitory effect of DP on T cell adhesion [3]: did not reverse

Compound: C=C[C@@]1(C)CC(=O)[C@]2(O)[C@@]3(C)[C@@H](O)CCC(C)(C)[C@@H]3[C@H](O)[C@H](OC(C)=O)[C@@]2(C)O1 [forskolin]
- inhibition at 25 µM [6, 8]: 31%
- effect on CXCL12-induced migration ([1]; Con A-stimulated splenocytes): no effect at all

Compound: CXCL12: Recombinant mouse CXCL12, chemokine, chemoattractant for leukocytes
- increase in number of migrating splenocytes ([6]; unstimulated splenocytes, CXCL12 250 ng/ml in lower chamber, 4 hr): 6.2 fold
- increase in number of migrating splenocytes ([1]; Con A-stimulated splenocytes, CXCL12 250 ng/ml in lower chamber, 4 hr): 2.5 fold
- effect on adhesion of Con A-stimulated splenocytes to endothelial cells [2]: did not increase
- reversal of the inhibitory effect of DP on T cell adhesion [3]: did not reverse

Compound: CN(C(=O)CCCOc1ccc2[nH]c(=O)ccc2c1)C1CCCCC1 [Cilostamide]
- IC50 (PDE3): 5 nM

Compound: CCOC(=O)C1=C[C@]2(CC)CCCN3CCc4c(n1c1ccccc41)[C@@H]32 [Vinpocetine]
- IC50 (PDE1): 5 to 25 µM

Compound: CC1CC(=O)NN=C1c1cc(-n2ccnc2)cs1 (centres unmarked) [motapizone]
- effect on CXCL12-induced migration ([1]; Con A-stimulated splenocytes): no statistically significant effect; also recorded: not inhibited at all
- ability to reduce adhesion of activated T cells to endothelial cells ([3]; 45 minute incubation): no inhibitory effect

Compound: Nc1ncnc2c1ncn2[C@@H]1O[C@@H]2COP(O)(=S)O[C@H]2[C@H]1O (single isomer, unassigned) [Rp-cAMPS, 3′,5′-cyclic monophosphorothioate, Rp-isomer]
- reversal of dipyridamole inhibition of CXCL12-stimulated chemotaxis ([1]; Rp-cAMPS 1 mM with dipyridamole 100 μM): reversed; also recorded: reversal

Compound: COc1ccc(C2CNC(=O)C2)cc1OC1CCCC1 (centres unmarked) [rolipram]
- lipopolysaccharide-stimulated release of TNF-α [7]: inhibit
- adhesion of T cells (T cells; 8-48 hour treatment): blocked
- adhesion to vascular ligands or endothelial cells (T cells; exposure for a short period of 4 hours): no effect
- T cell adhesion (T cells; until after 8 hours of exposure): did not significantly inhibit

From US20090239884A1, “Methods of Treating Inflammation” (priority 2006, published 2009)
